Among the data in US9656962B2, “Ring-contracted morphinans and the use thereof” (Purdue Pharma L.P., priority 2013, dated 2017) are Ki, Emax and EC50 values, retold here.

The target of assay [1] is T1, μ-opioid receptor (Homo sapiens (Human), UniProt P35372). The assay is described as follows: μ-opioid receptor radioligand binding assay ([3H]-diprenorphine). The settings on record: binding affinity. The procedure:
μ-Opioid Receptor Binding Assay Procedures: Radioligand dose-displacement binding assays for μ-opioid receptors used 0.3 nM [^3H]-diprenorphine (Perkin Elmer, Shelton, Conn.), with […] membrane protein/well in a final volume of 500 μl binding buffer (10 mM MgCl2, 1 mM EDTA, 5% DMSO, 50 mM HEPES, pH 7.4). Reactions were carried out in the absence or presence of increasing concentrations of unlabeled naloxone. All reactions were conducted in 96-deep well polypropylene plates for 2 hours at room temperature. Binding reactions were terminated by rapid filtration onto 96-well Unifilter GF/C filter plates (Perkin Elmer, Shelton, Conn.), presoaked in 0.5% polyethylenimine using a 96-well tissue harvester (Perkin Elmer, Shelton, Conn.) followed by performing three filtration washes with 500 μl of ice-cold binding buffer. Filter plates were subsequently dried at 50° C. for 2-3 hours. BetaScint scintillation cocktail (Perkin Elmer, Shelton, Conn.) was added (50 μl/well), and plates were counted using a Packard Top-Count for 1 min/well. The data were analyzed using the one-site competition curve fitting functions in GraphPad PRISM™ v. 3.0 or higher (San Diego, Calif.), or an in-house function for one-site competition curve-fitting.

For assay [2], the target named is T2, κ-opioid receptor (Homo sapiens (Human), UniProt P41145). The assay is described as follows: κ-opioid receptor [35S]GTPγS functional assay, HEK-293 or CHO cells (Table 4). The class given is biochemical. The settings on record: for Emax: relative to U69,593; for EC50: κ GTP. The protocol:
(§1) κ-Opioid Receptor Functional Assay Procedures: Functional [^35S]GTPγS binding assays were conducted as follows. κ opioid receptor membrane solution was prepared by sequentially adding final concentrations of 0.026 μg/μl κ membrane protein (in-house), 10 μg/mL saponin, 3 μM GDP and 0.20 nM [^35S]GTPγS to binding buffer (100 mM NaCl, 10 mM MgCl2, 20 mM HEPES, pH 7.4) on ice. The prepared membrane solution (190 μl/well) was transferred to 96-shallow well polypropylene plates containing 10 μl of 20× concentrated stock solutions of agonist prepared in DMSO. Plates were incubated for 30 min at a temperature of about 25° C. with shaking. Reactions were terminated by rapid filtration onto 96-well Unifilter GF/B filter plates (Perkin Elmer, Shelton, Conn.) using a 96-well tissue harvester (Packard) and followed by three filtration washes with 200 μl ice-cold binding buffer (10 mM NaH2PO4, 10 mM Na2HPO4, pH 7.4). Filter plates were subsequently dried at 50° C. for 2-3 hours. Fifty μl/well scintillation cocktail (Perkin Elmer, Shelton, Conn.) was added and plates were counted in a Packard Top-Count for 1 min/well.
κ GTP Emax (%) is the maximal effect elicited by a compound relative to the effect elicited by U69,593.
In TABLE 4, activity response of certain Compounds of the Invention to the μ- and κ-opioid receptors was determined as described above for functional assays using HEK-293 or CHO cells.

The target of assay [3] is T2, κ-opioid receptor. The assay can be described thus: κ-opioid receptor [35S]GTPγS functional assay, U-2 OS cells (Table 5). The class given is biochemical. To be noted: for Emax: relative to U69,593; for EC50: κ GTP. The procedure, abridged:
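[35S]GTPγS binding in κ receptor membranes (0.026 μg/μl protein) with 10 μg/mL saponin, 3 μM GDP and 0.20 nM [35S]GTPγS in pH 7.4 HEPES/NaCl/MgCl2 buffer. Agonist incubation lasted 30 min at about 25 °C, followed by filtration and scintillation counting. Emax is expressed relative to U69,593.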

The target of assay [4] is T1, μ-opioid receptor. The assay is described as follows: μ-opioid receptor [35S]GTPγS functional assay, U-2 OS cells (Table 5). The class given is biochemical. To be noted: for Emax: relative to DAMGO; for EC50: μ GTP. The procedure, abridged: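 Membranes (0.026 mg/mL) from cells expressing recombinant human μ-opioid receptor in a U-2 OS background were incubated with 0.20 nM [35S]GTPγS, 3 mM GDP and saponin in 20 mM HEPES pH 7.4, 100 mM NaCl, 10 mM MgCl2 for 30 min at about 25 °C. Filter-bound radioactivity counted; sigmoidal dose-response fits gave values, Emax relative to DAMGO.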
(GTPγS resists hydrolysis and so accumulates on activated G proteins.)

The target in assay [5] is T1, μ-opioid receptor. The assay can be described thus: μ-opioid receptor [35S]GTPγS functional assay, HEK-293 or CHO cells (Table 4). Type of assay: biochemical. The settings on record: for Emax: relative to DAMGO; for EC50: μ GTP. The procedure, abridged: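 Membranes from HEK-293, CHO or U-2 OS cells (or commercial) expressing recombinant μ receptor; 0.20 nM [35S]GTPγS, 3 mM GDP, saponin, in 100 mM NaCl/10 mM MgCl2/20 mM HEPES pH 7.4.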

The target of assay [6] is recombinant human kappa opioid receptor (κ) (Homo sapiens (Human), UniProt P41145). The assay can be described thus: κ-opioid receptor radioligand binding assay ([3H]-U69,593). The settings on record: binding affinity. The protocol: κ-Opioid Receptor Binding Assay Procedures: Membranes from HEK-293 cells, CHO cells or U-2 OS cells expressing the recombinant human kappa opioid receptor (κ) were prepared by lysing cells in ice cold hypotonic buffer (2.5 mM MgCl2, 50 mM HEPES, pH 7.4) (10 mL/10 cm dish) followed by homogenization with a tissue grinder/Teflon pestle. Membranes from a cell line naturally expressing kappa opioid receptor can also be used. Membranes were collected by centrifugation at 30,000×g for 15 min at 4° C. and pellets were resuspended in hypotonic buffer to a final concentration of 1-3 mg/mL. Protein concentrations were determined using the BioRad protein assay reagent with bovine serum albumen as standard. Aliquots of κ receptor membranes were stored at −80° C.
Radioligand dose displacement assays used 0.4 nM [^3H]-U69,593 (GE Healthcare, Piscataway, N.J.; 40 Ci/mmole) with 15 μg membrane protein (recombinant opioid receptor expressed in HEK 293 cells; in-house prep) in a final volume of 200 μl binding buffer (5% DMSO, 50 mM Trizma base, pH 7.4). Non-specific binding was determined in the presence of 10 μM unlabeled naloxone or U69,593. All reactions were performed in 96-well polypropylene plates for 1 hour at a temperature of about 25° C. Binding reactions were terminated by rapid filtration onto 96-well Unifilter GF/C filter plates (Perkin Elmer, Shelton, Conn.) presoaked in 0.5% polyethylenimine (Sigma). Harvesting was performed using a 96-well tissue harvester (Perkin Elmer, Shelton, Conn.) followed by five filtration washes with 200 μl ice-cold binding buffer. Filter plates were subsequently dried at 50° C. for 1-2 hours. Fifty μl/well scintillation cocktail (Perkin Elmer, Shelton, Conn.) was added and plates were counted in a Packard Top-Count for 1 min/well.

The target of another assay is δ-opioid receptor (Homo sapiens (Human), UniProt P41143). The assay is described as follows: δ-opioid receptor [35S]GTPγS functional assay (Table 4). Type of assay: biochemical. The protocol:
as §1, with “δ-Opioid” for “κ-Opioid”, “δ” for “κ”, “(Perkin Elmer, Shelton, Conn.),” for “(in-house),”, “shaking” for “shaking.”, “1-2” for “2-3”, “Top-count” for “Top-Count”
δ GTP Emax (%) is the maximal effect elicited by a compound relative to the effect elicited by met-enkephalin.

By Ki is commonly meant the equilibrium dissociation constant of an inhibitor or competing ligand from its target. One may read the Emax as the size of the effect at its maximum, as opposed to the concentration needed. What is called EC50 is the concentration needed to bring the measured effect to its halfway point. A higher EC50 goes with a less potent agent.

Sequence of δ-opioid receptor (P41143 whole entry, looked up): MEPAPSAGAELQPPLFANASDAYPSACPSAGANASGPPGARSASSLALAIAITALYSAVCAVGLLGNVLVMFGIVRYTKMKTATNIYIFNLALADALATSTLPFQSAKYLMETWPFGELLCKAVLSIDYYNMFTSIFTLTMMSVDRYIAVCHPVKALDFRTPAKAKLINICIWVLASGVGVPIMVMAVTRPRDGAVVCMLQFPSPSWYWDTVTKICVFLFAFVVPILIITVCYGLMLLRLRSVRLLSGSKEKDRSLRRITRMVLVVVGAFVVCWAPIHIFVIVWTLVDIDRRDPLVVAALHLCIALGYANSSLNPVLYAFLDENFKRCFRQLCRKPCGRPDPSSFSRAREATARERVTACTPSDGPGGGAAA

On to `N=C(N)NCCCCNC(=O)[C@@H]1C[C@]23CCN(CC4CC4)[C@H](Cc4ccc(O)cc42)[C@]3(O)C1` [Compound 7, (2R,3aS,4R,9bS)-12-(cyclopropylmethyl)-N-(4-guanidinobutyl)-3a,8-dibydroxy-1,2,3,3a,4,5-hexahydro-4,9b-(epimino-ethano)cyclopenta[a]naphthalene-2-carboxamide], for which the results for the Ki (on μ-opioid receptor [1]; in assay [6]) were 23.6 ± 5.56 nM and 0.13 ± 0.018 nM, respectively. In addition, the Emax was found to be 57.5 ± 1.66% at κ-opioid receptor [2], 101 ± 3.67% on κ-opioid receptor [3], 56.3 ± 2.6% on μ-opioid receptor [4] and 1% on μ-opioid receptor [5]. The concentration for a half-maximal effect (EC50) is 0.8 ± 0.26 nM on κ-opioid receptor [2], 1.16 ± 0.16 nM at κ-opioid receptor [3], 8.94 ± 1.31 nM at μ-opioid receptor [4] and greater than 20 µM on μ-opioid receptor [5] (bound given in μM).

`COc1ccc2c(c1)[C@]13CCN(CC4CC4)[C@H](C2)[C@]1(O)C[C@H](C(N)=O)C3` [Compound 11, (2R,3aS,4R,9bS)-12-(cyclopropylmethyl)-3a-hydroxy-8-methoxy-1,2,3,3a,4,5-hexahydro-4,9b-(epiminoethano)cyclo-penta[a]naphthalene-2-carboxamide]: the Ki at μ-opioid receptor [1] turned out to be 2980 ± 466 nM; in assay [6], 182 ± 29.2 nM. Further, on κ-opioid receptor [3], the Emax came to 103 ± 1.67%. In addition, the EC50 on κ-opioid receptor [3] amounted to 1360 ± 49.8 nM.

For `COC(=O)[C@@H]1C[C@]23CCN(CC4CC4)[C@H](Cc4ccc(O)cc42)[C@]3(O)C1` [Compound 12, (2R,3aS,4R,9bS)-methyl-12-(cyclopropylmethyl)-3a,8-dihydroxy-1,2,3,3a,4,5-hexahydro-4,9b-(epimino-ethano)cyclopenta[a]naphthalene-2-carboxylate], the Ki came to 0.53 ± 0.076 nM at μ-opioid receptor [1] and 0.3 ± 0.056 nM in assay [6]. The Emax at κ-opioid receptor [2] was found to be 82.7 ± 1.2%; at κ-opioid receptor [3] it was 108 ± 3.51%; on μ-opioid receptor [4], 55.6 ± 3.83%; at μ-opioid receptor [5], 1%. Besides, the EC50 on κ-opioid receptor [2] was 2.95 ± 1.06 nM; on κ-opioid receptor [3] it was 1.7 ± 0.26 nM; at μ-opioid receptor [4], 1.22 ± 0.27 nM; at μ-opioid receptor [5] (bound given in μM), greater than 20 µM.

For the molecule `O=C(O)[C@@H]1C[C@]23CCN(CC4CC4)[C@H](Cc4ccc(O)cc42)[C@]3(O)C1` [Compound 16, (2R,3aS,4R,9bS)-12-(cyclopropylmethyl)-3a,8-dihydroxy-1,2,3,3a,4,5-hexahydro-4,9b-(epiminoethano)-cyclopenta-[a]naphthalene-2-carboxylic acid], the results for the Ki (at μ-opioid receptor [1]; in assay [6]) were 55.6 ± 11 nM and 17.3 ± 6.19 nM, respectively. The Emax at κ-opioid receptor [2] came out at 38 ± 2.04%; on κ-opioid receptor [3], 90.7 ± 5.81%; on μ-opioid receptor [4] it was 31.8 ± 3.07%; at μ-opioid receptor [5], 1%. Besides, the EC50 on κ-opioid receptor [2] is 12.4 ± 3.66 nM; on κ-opioid receptor [3], 13.2 ± 1.86 nM; at μ-opioid receptor [4] it was 4.75 ± 0.62 nM; on μ-opioid receptor [5] (bound given in μM), greater than 20 µM.

For `O=C(NCc1ccccc1)[C@@H]1C[C@]23CCN(CC4CC4)[C@H](Cc4ccc(O)cc42)[C@]3(O)C1` [Compound 33, (2R,3aS,4R,9bS)-N-benzyl-12-(cyclopropylmethyl)-3a,8-dihydroxy-1,2,3,3a,4,5-hexahydro-4,9b-(epiminoethano)cyclopenta[a]naphthalene-2-carboxamide], the Ki at μ-opioid receptor [1] amounted to 1.39 ± 0.082 nM; in assay [6] it was 0.75 ± 0.13 nM. Moreover, the Emax at κ-opioid receptor [2] was 43.3 ± 0.33%; on κ-opioid receptor [3], 103 ± 3.48%; at μ-opioid receptor [4], 45.7 ± 0.67%; at μ-opioid receptor [5] it was 1%. For the same molecule, the EC50 is 7.03 ± 0.82 nM at κ-opioid receptor [2], 3.18 ± 0.46 nM on κ-opioid receptor [3], 3.84 ± 0.21 nM at μ-opioid receptor [4] and greater than 20 µM on μ-opioid receptor [5] (bound given in μM).

`Cc1ccc(CNC(=O)[C@H]2C[C@]34CCN(CC5CC5)[C@H](Cc5ccc(O)cc53)[C@]4(O)C2)cc1` [Compound 38, (2S,3aS,4R,9bS)-12-(cyclopropylmethyl)-3a,8-dihydroxy-N-(4-methylbenzyl)-1,2,3,3a,4,5-hexahydro-4,9b-(epiminoethano)cyclopenta[a]naphthalene-2-carboxamide]: the Emax is 96.3 ± 3.18% at κ-opioid receptor [2]; 50.1 ± 1.25% at δ-opioid receptor (relative to met-enkephalin); 105 ± 3.18% at κ-opioid receptor [3]; 77.7 ± 2.4% at μ-opioid receptor [4]; 56.5 ± 2.6% on μ-opioid receptor [5]. Besides, the EC50 on κ-opioid receptor [2] turned out to be 0.43 ± 0.048 nM; at δ-opioid receptor (δ GTP), 1.56 ± 0.055 nM; on κ-opioid receptor [3], 0.065 ± 0.01 nM; on μ-opioid receptor [4] it was 0.25 ± 0.024 nM; on μ-opioid receptor [5], 0.00062 ± 0.00012 µM. The Ki in assay [6] was found to be 0.16 ± 0.044 nM.

As to `O=C(NCc1ccc(O)cc1O)[C@H]1C[C@]23CCN(CC4CC4)[C@H](Cc4ccc(O)cc42)[C@]3(O)C1` [Compound 42, (2S,3aS,4R,9bS)-12-(cyclopropylmethyl)-N-(2,4-dihydroxybenzyl)-3a,8-dihydroxy-1,2,3,3a,4,5-hexahydro-4,9b-(epimino-ethano)cyclopenta[a]naphthalene-2-carboxamide], the figures for the Ki (on μ-opioid receptor [1]; in assay [6]) were 0.4 ± 0.024 nM and 0.37 ± 0.13 nM, respectively. For the same molecule, the Emax stood at 98.3 ± 1.33% at κ-opioid receptor [2], 87.7 ± 4.63% at κ-opioid receptor [3], 35 ± 1.15% at μ-opioid receptor [4] and 1% at μ-opioid receptor [5]. Moreover, the EC50 at κ-opioid receptor [2] is 0.32 ± 0.059 nM; at κ-opioid receptor [3], 1.27 ± 0.076 nM; at μ-opioid receptor [4] it was 1.33 ± 0.12 nM; on μ-opioid receptor [5] (bound given in μM), greater than 20 µM.
